Laboratory results as given in patent publication US20040180394A1, “Assays for inositol phosphates” (priority 2001, published 2004).
Where no end group is shown, it is not given here.

Experiments:
untransfected T24 cells = test: Inositol phosphate SPA assay in untransfected T24 cells; assay type: cell-based; conditions: 1 mM carbachol
parent T24 cell line = test: FLIPR intracellular calcium in parent T24 cell line; assay type: cell-based
[1] = test system: acetylcholine receptors naturally expressed in HEK293 cells; test: Inositol phosphate SPA assay in wild-type HEK293 cells; assay type: cell-based, human; conditions: 1 mM carbachol, 5 mM LiCl where used (FIG. 9)
Description: See Example 8 for details.

[2] = test system: untransfected CHO/NFAT cells; test: Inositol phosphate assay in untransfected CHO/NFAT cells; assay type: cell-based; conditions: untransfected CHO/NFAT cells (FIGS. 7A-D), 10 nM NPFF
Description: There was no response to NPFF in untransfected CHO/NFAT cells (FIGS. 7A-D).

| Compound | response to agonist (inositol phosphates) (untransfected T24 cells) | rise in intracellular calcium (parent T24 cell line) | inositol phosphate level [1] | response to agonist (inositol phosphates) [2] |
| --- | --- | --- | --- | --- |
| C[N+](C)(C)CCOC(N)=O [carbachol] | no response | no rise in intracellular calcium | increase of inositol phosphate | – |
| NPFF: agonist used at 10 nM to activate the human neuropeptide FF receptor (FLFQPQRF; ends and bridges not checked; UniProt O15130 69-76, looked up) | – | – | – | no response |
